# In patent US20250144069A1, “BILOBALIDE DERIVATIVE COMPOUNDS FOR TREATING NEUROLOGICAL DISEASES AND CANCERS” (The Chinese University of Hong Kong, priority 2023, published 2025):
# What was measured:
# [1] = test system: HMC3 microglial cell line; test: RSL3-induced ferroptosis model, cell viability (CCK-8); assay type: cell-based
# [2] = test system: BV-2 murine microglial cell line; test: as above; conditions: BV-2, RSL3 500 nM 2 h, then 50 μM compound 22 h
# Procedure: In this example, the anti-ferroptotic properties of the BB analogues described in preceding examples were evaluated by a RSL3-induced ferroptosis model. […] To evaluate the anti-ferroptosis activity of BB analogues, we developed a phenotypic screening based on RSL3-induced ferroptosis model on HT22 mouse hippocampal cell line, HMC3 microglial cell line and BV-2 murine microglial cell line which were co-treated or pre-treated with RSL3 and BB analogues for 2-24 h, and the cell viability was subsequently measured. […]
# For phenotypic screening of bilobalide (BB) analogues, 5,000 cells per well (100 uL volume) of HT22, HMC3 or BV-2 cells were placed in 96-well plate and allowed to adhere for 22 h. […] Cell viability was measured using cell counting kit-8 (CCK-8) (MCE). […] Cell viability was measured after 22 h treatment by CCK-8. […] Cell viability was measured by CCK-8 using CLARIOstar monochromator multimode plate reader under 450 nm wavelength.
# In this example, the cells were pre-treated with RSL3 (200 nM for HT22 and HMC3, 500 nM for BV-2) for two hours, followed by bilobalide analogues treatment (50 PM) for 22 hours. Cell viability was measured using cell counting kit-8 (CCK-8); n=5 technical replicates. […]
# [3] = test system: GPX4; test: GPX4 protein level by Western-blot; assay type: cell-based
# From the text: As mentioned above, RSL3 treatment results in an oxidized environment in cells, which promotes the CMA to scavenge damaged proteins including GPX4 or glyceraldehyde-3-phosphate dehydrogenase (GAPDH), a well-known CMA substrate. To gain insights into the mechanism of action of bilobalide analogue XBB-037 against the RSL3-induced ferroptosis, HMC3 cells were pre-treated with RSL3, followed by treatment with or without bilobalide analogue XBB-037.
# In FIN56 assay, HMC3 (300,000 cells per well on 6-well plate) was pre-treated with FIN56 (2.5, 1.25, 0.625 μM) for 2 h, followed by 8 h treatment of DMSO only (0.1%) or XBB-037 (50 μM). In RSL3 assay, HMC3 (300,000 cells per well on 6-well plate) was pre-treated with RSL3 (750, 500, 250 nM) for 2 h, followed by 4 h or 8 h treatment of DMSO only (0.1%) or XBB-037 (50 μM). […] Antibodies for GPX4 (52455, CST) was used at 1:500 dilution, β-Actin (AC026, ABclonal) was used at 1:400,000 dilution, GAPDH (AC035, ABclonal) was used at 1:3000 dilution. […] Band intensity was normalized by image lab software.
# Now referring to FIGS. 7E-7F, GPX4 levels in HMC3 cells pre-treated with RSL3 are shown. Protein levels of GPX4 and […] at 0, 250, 500 or 750 nM RSL3 were measured by Western-blot. HMC3 cells were pretreated with RSL3 for 2 hours and then treated with or without 50 μM bilobalide analogue XBB-037 for 4 hours.
# In addition to […], FIN56 was further used to investigate the GPX4 regulation of bilobalide analogue XBB-037. As mentioned above, FIN56 is a Class III ferroptosis inducer, which causes the depletion of cellular GPX4 levels without affecting GPX4 activity. In this experiment, HMC3 cells were pretreated with FIN56 for 2 hours and then treated with or without 50 μM XBB-037 for 8 hours. Protein levels were measured by Western-blotting using indicated antibodies. Data were plotted as mean±s.d., n=3 technical replicates. **p<0.01. Statistical analyses were performed by two-way ANOVA with multiple comparisons using Two-stage linear step-up procedure of Benjamini, Krieger and Yekutieli multiple comparisons test. […]
# [4] = test system: Jurkat cells; test: Single-dose CCK-8 cell viability screening (suspension cells); assay type: cell-based, human; conditions: Homo sapiens, Jurkat, 48 h, Jurkat cells, 50 uM, CCK-8, read-out: % Viability (50 uM, 48 h) Jurkat
compound,measurement,setting,value
"CC(C)(C)[C@]1(O)C[C@@H]2OC(=O)C[C@@]23C(=O)O[C@@H]2N(c4ccc(N)cc4)C(=O)[C@H](OC(=O)c4ccccc4)[C@]213 [XBB-037, 4-(3aS,5aS,8R,9R,10aS)-8-(benzoyloxy)-9-(tert-butyl)-9-hydroxy-2,4,7-trioxohexahydro-4H,9H-furo[3″,2″:2′,3′]cyclopenta[1′,2′:3,4]furo[2,3-b]pyrrol-6(5aH)-yl)benzenaminium chloride]","inhibition of RSL3-induced ferroptosis (phenotypic screening, cell viability)","[1]; HMC3, RSL3 200 nM 2 h, then 50 μM compound 22 h",effectively inhibit ferroptosis
same,shift of RSL3 dose-dependent viability curve,"[1]; HMC3, multiple doses of RSL3, 50 μM compound",diminished RSL3 lethality
same,"inhibition of RSL3-induced ferroptosis (phenotypic screening, cell viability)",[2],effectively inhibit ferroptosis
same,GPX4 level after FIN56,"[3]; HMC3, FIN56 0.625, 1.25, 2.5 μM 2 h, then 50 μM compound 8 h",significantly restored GPX4 level
same,GPX4 level after RSL3,"[3]; HMC3, RSL3 0, 250, 500 or 750 nM 2 h, then 50 μM compound 4 h",RSL3-induced GPX4 degradation was reduced
same,viability at 50 µM,[4],86%
